Data: patent publication US11453660B2, “Androgen receptor and glucocorticoid receptor modulators” (ONCOSTELLAE, S.L., priority 2017, dated 2022)

What was measured:
[1] = biological target: T1, Rat Androgen Receptor (Rattus norvegicus, UniProt P15207); experiment: Rat Androgen Receptor Binding (polarscreen AR competitor assay, fluorescence polarization); conditions: displacement of Fluormone AL Green, 4 hours at RT, read-out: AR rat-fluorimetric
T1 construct: purchased Life Technologies A15880
T1 sequence (P15207 646-902 limits assumed): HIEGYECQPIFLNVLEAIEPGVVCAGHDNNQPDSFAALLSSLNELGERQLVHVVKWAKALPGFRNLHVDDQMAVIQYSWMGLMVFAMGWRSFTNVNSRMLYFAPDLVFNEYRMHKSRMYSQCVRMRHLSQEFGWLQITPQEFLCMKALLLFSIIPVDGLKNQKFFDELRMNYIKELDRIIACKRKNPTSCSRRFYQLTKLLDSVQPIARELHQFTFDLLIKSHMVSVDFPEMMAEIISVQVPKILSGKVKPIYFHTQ
Procedure: Pharmacological Activity Rat Androgen Receptor Binding
The assay was carried out following the instructions of polarscreen AR competitor assay green kit (Life Technologies, Cat #.: A15880). Briefly, the test is based on measuring the changes of fluorescence polarization shown by the Fluormone AL Green. Thus, when the Fluormone is bound to the receptor, a fluorescence polarization is observed that diminishes when a ligand competes for the receptor binding site and the Fluormone gets displaced.
The inhibition values for each of the compounds are measured in duplicate at 1 and 10 μM and the plate is incubated for 4 hours at RT. Fluorescence polarization is the measured in a Tecan Infinite M1000 Pro reader (λexc=485 nm, λem=535 nm). In order to obtain a dose-response curve and calculate the potency of inhibition (expressed as IC50) for AR, a series of 1:10 dilutions in test in 1× buffer from 10 μM to 0.1 nM for each compound was carried out.

[2] = biological target: T2, human androgen receptor (Homo sapiens, UniProt P10275, T878A); experiment: Human Androgen Receptor Binding (radioligand binding, LnCap prostate cancer cell line); conditions: LnCap cells, displacement of [^3H]-methyltrienolone, 2 hours at 37° C.; read-out: AR LNCaP
T2 construct: endogenously expressed human androgen receptor using the LnCap prostate cancer cell line; endogenous in cells; host or cells: LNCaP prostate cancer cell line (whole cells)
T2 sequence (P10275 1-920 T878A): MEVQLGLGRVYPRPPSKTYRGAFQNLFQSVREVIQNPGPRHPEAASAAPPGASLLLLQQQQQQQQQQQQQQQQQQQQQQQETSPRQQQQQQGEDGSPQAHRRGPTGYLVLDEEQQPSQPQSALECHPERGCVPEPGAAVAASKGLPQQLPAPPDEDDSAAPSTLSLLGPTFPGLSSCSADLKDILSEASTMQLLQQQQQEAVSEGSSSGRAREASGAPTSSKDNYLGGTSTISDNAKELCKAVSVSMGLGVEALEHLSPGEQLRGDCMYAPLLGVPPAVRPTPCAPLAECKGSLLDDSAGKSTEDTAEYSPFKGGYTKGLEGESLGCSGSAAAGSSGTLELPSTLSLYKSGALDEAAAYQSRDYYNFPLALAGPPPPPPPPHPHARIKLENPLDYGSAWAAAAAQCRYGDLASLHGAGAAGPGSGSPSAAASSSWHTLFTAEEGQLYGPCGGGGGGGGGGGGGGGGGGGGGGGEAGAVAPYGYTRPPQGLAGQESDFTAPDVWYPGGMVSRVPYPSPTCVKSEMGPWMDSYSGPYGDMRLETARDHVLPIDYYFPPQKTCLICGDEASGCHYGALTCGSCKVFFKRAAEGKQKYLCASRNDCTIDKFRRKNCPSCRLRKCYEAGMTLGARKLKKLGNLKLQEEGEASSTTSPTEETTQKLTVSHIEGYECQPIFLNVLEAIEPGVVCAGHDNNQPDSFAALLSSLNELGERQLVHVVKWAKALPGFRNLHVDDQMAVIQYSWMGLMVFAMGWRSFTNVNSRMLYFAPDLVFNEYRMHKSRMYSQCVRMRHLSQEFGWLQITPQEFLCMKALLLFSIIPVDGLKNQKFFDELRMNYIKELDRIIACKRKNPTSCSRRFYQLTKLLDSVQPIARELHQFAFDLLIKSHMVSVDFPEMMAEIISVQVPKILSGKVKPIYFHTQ
Procedure: Human Androgen Receptor Binding
Radioligand binding studies were carried out on endogenously expressed human androgen receptor using the LnCap prostate cancer cell line. The test is based on measuring radioactively labelled AR ligand [^3H]-methyltrienolone that gets displaced by increasing concentrations of test compound. The test is performed in 96-well plates (Falcon, #353072). Positive and negative controls are also required in each analyzed plate to evaluate the total and non-specific binding binding of the radioligand to the receptor. Cells (60000 per well) were incubated for 24 hours before executing the experiment at 37° C. and in a 5% CO2 atmosphere. Medium was replaced by assay buffer (RPMI-640 (ATCC #30-2001) supplemented with 0.1% bovine serum albumin (Sigma #8806-56) and Triamcinolone acetonide (Sigma #T6501)). The compounds at the desired concentrations and [^3H]methyltrienolone (Perkin Elmer #NET590) were added to the wells.
In order to obtain a dose-response curve and calculate the potency of inhibition (expressed as IC50) for AR, a series of 1:10 dilutions in test in 1× buffer from 10 μM to 0.1 nM for each compound was carried out.
Cells were incubated for 2 hours at 37° C. in a 5% CO2 atmosphere and then washed twice with ice-cold HBSS. Then cells were lysed with solubilization buffer (Hank's Balanced Salt Solution (HBSS, Sigma #H6648), 0.5% Sodium dodecyl sulfate 0.5% (SDS, Sigma #L7390-500G, Lote: 078K0102) and 20% Glycerol (Sigma Aldrich, #G2025) for 30 minutes at RT. 75 μL aliquots were taken from each well and transferred to a 96-well flexiplate (Perkin Elmer #1450-401) and mixed with 100 μL of scintillation cocktail (Optiphase supermix, PerkinElmer, #1200-439). Plates are shaken for 60 minutes and radioactivity was measured in a beta scintillation counter (Microbeta Trilux, Perkin Elmer).

[3] = biological target: T3, Human Glucocorticoid Receptor (Homo sapiens, UniProt P04150); experiment: Competition Binding in IM-9 Human Glucocorticoid Receptor (GR IM-9); conditions: cytosol from IM-9 cell line, 1.5 nM [3H]-Dexamethasone, 4° C. for 6 hours
T3 construct: endogenous in cells; host or cells: cytosol from IM-9 cell line
T3 sequence (P04150 1-777): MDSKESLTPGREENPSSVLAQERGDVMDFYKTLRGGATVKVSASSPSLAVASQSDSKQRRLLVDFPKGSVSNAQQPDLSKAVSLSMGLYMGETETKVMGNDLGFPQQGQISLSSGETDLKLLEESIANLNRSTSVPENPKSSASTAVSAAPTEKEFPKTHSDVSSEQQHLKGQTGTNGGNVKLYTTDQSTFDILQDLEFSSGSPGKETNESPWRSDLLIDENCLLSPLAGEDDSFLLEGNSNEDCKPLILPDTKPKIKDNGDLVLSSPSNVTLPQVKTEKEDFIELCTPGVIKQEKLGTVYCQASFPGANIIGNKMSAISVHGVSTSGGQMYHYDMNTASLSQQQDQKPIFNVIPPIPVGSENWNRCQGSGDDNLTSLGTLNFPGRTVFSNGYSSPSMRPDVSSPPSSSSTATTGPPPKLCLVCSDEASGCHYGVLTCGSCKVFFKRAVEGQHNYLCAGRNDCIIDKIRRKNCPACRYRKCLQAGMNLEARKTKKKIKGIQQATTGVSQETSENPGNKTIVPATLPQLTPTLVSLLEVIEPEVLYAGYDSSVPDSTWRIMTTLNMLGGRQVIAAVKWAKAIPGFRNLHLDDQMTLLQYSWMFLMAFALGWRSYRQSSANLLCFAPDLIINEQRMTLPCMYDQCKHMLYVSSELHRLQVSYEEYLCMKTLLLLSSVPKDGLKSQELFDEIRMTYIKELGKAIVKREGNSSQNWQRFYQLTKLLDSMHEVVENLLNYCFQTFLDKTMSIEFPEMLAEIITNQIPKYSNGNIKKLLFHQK
How it was run: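 Radioligand competition using 100 μg IM-9 cell cytosol and 1.5 nM [3H]-dexamethasone, incubated 6 h at 4° C in TES/molybdate buffer, pH 7.4. Filtration on PEI-treated GF/B filters, scintillation counting; nonspecific binding defined with 10 μM triamcinolone.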

IC50 [1] [nM] | IC50 [2] [nM] | IC50 [3] [nM] | Compound
≥ 1000 | – | – | COC(=O)C1=C(N)NC(C)=C(C(=O)C2CC2)C1c1csc2ccccc12 (stereo not drawn) [Example D2, Methyl 2-amino-4-(benzo[b]thiophen-3-yl)-5-(cyclopropanecarbonyl)-6-methyl-1,4-dihydropyridine-3-carboxylate]
≥ 1000 | – | – | CC(=O)C1=C(C)NC(C)=C(C(C)=O)C1c1csc2ccc(C#N)cc12 [Example H7, 3-(3,5-diacetyl-2,6-dimethyl-1,4-dihydropyridin-4-yl)benzo[b]thiophene-5-carbonitrile]
100 to 1000 | – | – | COC(=O)C1=C(C)NC(C)=C(C(C)=O)C1c1csc2ccc(Cl)cc12 (stereo not drawn) [Example J3, Methyl 5-acetyl-4-(5-chlorobenzo[b]thiophen-3-yl)-2,6-dimethyl-1,4-dihydropyridine-3-carboxylate]
100 to 1000 | – | – | CC(=O)C1=C(C)NC(C)=C(C(=O)OC2CCC2)C1c1csc2ccccc12 (stereo not drawn) [Example C28, Cyclobutyl 5-acetyl-4-(benzo[b]thiophen-3-yl)-2,6-dimethyl-1,4-dihydropyridine-3-carboxylate]
< 100 | – | – | CC(=O)C1=C(C)NC(C)=C(C(=O)OCC2CC2)C1c1csc2ccc(F)cc12 (stereo not drawn) [Example C21, Cyclopropylmethyl 5-acetyl-4-(5-fluorobenzo[b]thiophen-3-yl)-2,6-dimethyl-1,4-dihydropyridine-3-carboxylate]
< 100 | – | – | COC(=O)C1=C(N)NC(C)=C(C(C)=O)C1c1csc2ccc(F)cc12 (stereo not drawn) [Example D3, Methyl 5-acetyl-2-amino-4-(5-fluorobenzo[b]thiophen-3-yl)-6-methyl-1,4-dihydropyridine-3-carboxylate]
– | 100 to 1000 | < 100 | COC(=O)C1=C(C)NC(N)=C(C(=O)OCC2CC(F)(F)C2)C1c1csc2c(C#N)cccc12 (stereo not drawn) [Example D34, 3-((3,3-Difluorocyclobutyl)methyl) 5-methyl 2-amino-4-(7-cyanobenzo[b]thiophen-3-yl)-6-methyl-1,4-dihydropyridine-3,5-dicarboxylate]
– | 100 to 1000 | < 100 | COC(=O)C1=C(C)NC(CO)=C(C(=O)OC)C1c1csc2c(C#N)cccc12 (stereo not drawn) [Example C120, Dimethyl 4-(7-cyanobenzo[b]thiophen-3-yl)-2-(hydroxymethyl)-6-methyl-1,4-dihydropyridine-3,5-dicarboxylate]
– | ≥ 1000 | < 100 | CC(=O)C1=C(C)NC(C2CC2)=C(C(=O)OCc2ccccc2)C1c1csc2ncccc12 (stereo not drawn) [Example J31, Benzyl 5-acetyl-2-cyclopropyl-6-methyl-4-(thieno[2,3-b]pyridin-3-yl)-1,4-dihydropyridine-3-carboxylate]
– | 100 to 1000 | < 100 | COC(=O)C1=C(C)NC(N)=C(C(=O)OCC2CC2(F)F)C1c1csc2c(C#N)cccc12 (stereo not drawn) [Example D36, 3-((2,2-Difluorocyclopropyl)methyl) 5-methyl 2-amino-4-(7-cyanobenzo[b]thiophen-3-yl)-6-methyl-1,4-dihydropyridine-3,5-dicarboxylate]
– | < 100 | < 100 | CC(=O)C1=C(C(=O)OCC2CC2)C(c2csc3c(C#N)cccc23)C(C(C)=O)=C(C)N1 (stereo not drawn) [Example C123, Cyclopropylmethyl 2,5-diacetyl-4-(7-cyanobenzo[b]thiophen-3-yl)-6-methyl-1,4-dihydropyridine-3-carboxylate]
– | 100 to 1000 | < 100 | COC(=O)C1=C(C)NC(N)=C(C(=O)OCC2CCC2)C1c1csc2c(C#N)cccc12 (stereo not drawn) [Example D33, 3-(Cyclobutylmethyl) 5-methyl 2-amino-4-(7-cyanobenzo[b]thiophen-3-yl)-6-methyl-1,4-dihydropyridine-3,5-dicarboxylate]
– | ≥ 1000 | < 100 | CC(=O)C1=C(C)NC(C)=C(C(=O)OCC2CCCCC2)C1c1csc2ncccc12 (stereo not drawn) [Example C34, Cyclohexylmethyl 5-acetyl-2,6-dimethyl-4-(thieno[2,3-b]pyridin-3-yl)-1,4-dihydropyridine-3-carboxylate]
– | 100 to 1000 | < 100 | COC(=O)C1=C(C2CC2)NC(C2CC2)=C(C(=O)OC)C1c1csc2c(C#N)cccc12 [Example J28-a, Dimethyl 4-(7-cyanobenzo[b]thiophen-3-yl)-2,6-dicyclopropyl-1,4-dihydropyridine-3,5-dicarboxylate]
– | < 100 | < 100 | CC#CCOC(=O)C1=C(C)NC(N)=C(C(=O)OCC2CC2)C1c1csc2c(C#N)cccc12 (stereo not drawn) [Example D49, 5-(But-2-yn-1-yl) 3-(cyclopropylmethyl) 2-amino-4-(7-cyanobenzo[b]thiophen-3-yl)-6-methyl-1,4-dihydropyridine-3,5-dicarboxylate]
